The values that follow are results of earlier work, collected in patent US20090082295A1, “COMBINATIONS AND METHODS OF USING AN IMMUNOMODULATORY OLIGODEOXYNUCLEOTIDE” (PFIZER INC., priority 2005, published 2009).

Structures can show the parent of a compound that is named as a salt. Some results are limits rather than exact numbers.

For one series, the system named is mammalian cells. Particulars: high concentrations.
The subject of a further series is mitotic microtubules. To be noted: intact tectal plates from mouse embryos.
The next series deals with axonal microtubules. To be noted: intact tectal plates from mouse embryos.
Series [1] concerns xenotransplant models of colon cancer. To be noted: nude (athymic) mice.
Series [2] deals with topoisomerase I purified from human and rodent tumor cell lines. To be noted: purified enzyme.
The conditions of series [3]: combination with cisplatin.
Series [4] concerns LX-1 human lung xenograft.
For series [5], the system named is CALU-6 human lung xenograft.
The subject of series [6] is Lewis lung murine xenograft.
Series [7] relates to rat mammary carcinoma induced by dimethylbenzanthracene (DMBA).

`COc1cc([C@@H]2c3cc4c(cc3[C@@H](O[C@@H]3O[C@@H]5CO[C@@H](C)O[C@H]5[C@H](O)[C@H]3O)[C@H]3COC(=O)[C@H]23)OCO4)cc(OC)c1O` [Etoposide, 4′-Demethylepipodophyllotoxin 9-[4,6-0-(R)-ethylidene-β-D-glucopyranoside]]: the “concentration at which lysis of cells entering mitosis is observed” value with mammalian cells is no less than 10 µg/mL.
For the compound `CC[C@]1(O)C[C@H]2CN(CCc3c([nH]c4ccccc34)[C@@](C(=O)OC)(c3cc4c(cc3OC)N(C=O)[C@H]3[C@@](O)(C(=O)OC)[C@H](OC(C)=O)[C@]5(CC)C=CCN6CC[C@]43[C@@H]65)C2)C1` [vincristine], in the series on mitotic microtubules, the “concentration inhibiting mitotic microtubule formation, inducing a blockade of cells at metaphase” value was 2 µM. Moreover, the “concentration producing depolymerization of axonal microtubules” value (shortened to “concentration producing depolymerization”) with axonal microtubules was 5 µM.
With `CC[C@]1(O)C[C@@H]2CN(CCc3c([nH]c4ccccc34)[C@@](C(=O)OC)(c3cc4c(cc3OC)N(C)[C@H]3[C@@](O)(C(=O)OC)[C@H](OC(C)=O)[C@]5(CC)C=CCN6CC[C@]43[C@@H]65)C2)C1` [vinblastine], the “concentration inhibiting mitotic microtubule formation, inducing a blockade of cells at metaphase” value in the series on mitotic microtubules was 2 µM. Further, in the series with axonal microtubules, the “concentration producing depolymerization” value is 30 µM.
Take “bevacizumab: recombinant humanized monoclonal IgG1 antibody that binds human VEGF”: the “effect on microvascular growth and metastatic disease progression” value in [1] was “reduction of microvascular growth and inhibition of metastatic disease progression”.
As to `CCC1=C[C@@H]2CN(C1)Cc1c([nH]c3ccccc13)[C@@](C(=O)OC)(c1cc3c(cc1OC)N(C)[C@H]1[C@@](O)(C(=O)OC)[C@H](OC(C)=O)[C@]4(CC)C=CCN5CC[C@]31[C@@H]54)C2` (relative stereo) [vinorelbine, 3′,4′-didehydro-4′-deoxy-C′-norvincaleukoblastine[R—(R*,R*)-2,3-dihydroxybutanedioate (1:2) (salt)]], the “concentration inhibiting mitotic microtubule formation, inducing a blockade of cells at metaphase” value with mitotic microtubules was 2 µM. In addition, the “concentration producing depolymerization” value in the series with axonal microtubules was 40 µM.
As to `CCc1c2c(nc3ccc(O)cc13)-c1cc3c(c(=O)n1C2)COC(=O)[C@]3(O)CC` [SN-38], in series [2], the “potency as inhibitor of topoisomerase I relative to irinotecan” value is recorded as “approximately 1000 times”.
As for `Nc1ccn([C@@H]2O[C@H](CO)[C@@H](O)C2(F)F)c(=O)n1` [Gemcitabine, 2′-deoxy-2′,2′-difluorocytidine monohydrochloride (β-isomer)], the “activity with cisplatin in vitro” value in series [3] is “dose-dependent synergistic activity”. Also, the “activity in combination with cisplatin” value is recorded as “showed activity” in [4], “showed activity” in [5], “minimal activity” in the series on NCI-H460 xenograft and “minimal activity” with NCI-H520 xenograft. Further, the interaction with cisplatin result in series [6] is “synergistic”.
Take `CC/C(=C(\c1ccccc1)c1ccc(OCCN(C)C)cc1)c1ccccc1` [Tamoxifen, (Z)2-[4-(1,2-diphenyl-1-butenyl)phenoxy]-N, Ndimethylethanamine 2-hydroxy-1,2,3-propanetricarboxylate (1:1)]: in series [7], the “effect on DMBA-induced mammary carcinoma” value is “inhibits the induction of rat mammary carcinoma induced by dimethylbenzanthracene (DMBA) and causes the regression of already established DMBA-induced tumors”.
